Measured values taken from ChEMBL document CHEMBL1212788, “Mode of action of Van-M-02, a novel glycopeptide inhibitor of peptidoglycan synthesis, in vancomycin-resistant bacteria” (Antimicrob Agents Chemother, 2010).
In brackets after ≈: the same amount, converted by molar mass.

How the values were obtained:
Staphylococcus aureus [1] = assay: Antibacterial activity against methicillin resistant Staphylococcus aureus SR-3637 by broth dilution method; assay type: functional; conditions: SR3637
Staphylococcus aureus [2] = assay: Antibacterial activity against methicillin susceptible Staphylococcus aureus Smith by broth dilution method; assay type: functional
Staphylococcus aureus [3] = assay: Antibacterial activity against vancomycin intermediate Staphylococcus aureus ATCC 700787 by broth dilution method; assay type: functional
Staphylococcus aureus [4] = assay: Antibacterial activity against methicillin susceptible Staphylococcus aureus RN4220 by broth dilution method; assay type: functional
Enterococcus faecalis [5] = assay: Antibacterial activity against vancomycin A resistant Enterococcus faecalis isolate SR-7914 by broth dilution method; assay type: functional; conditions: isolate SR7914
Staphylococcus aureus [6] = assay: Inhibition of lipid intermediate formation in vancomycin A resistant Staphylococcus aureus isolate HIP11714 assessed as reduction in N-acetyl-D-[1-3H]glucosamine incorporation in crude assay system; assay type: functional
[7] = Inhibition of vancomycin A resistant Staphylococcus aureus isolate HIP11714 transglycosylase assessed as inhibition of peptidoglycan formation by crude assay
Staphylococcus aureus [8] = assay: Antibacterial activity against methicillin susceptible Staphylococcus aureus RN4220 in presence of 8 ug/mL Nalpha,Nepsilon-diacetyl-L-Lys-D-Ala-D-Ala by broth dilution method; assay type: functional
Staphylococcus aureus [9] = assay: Antibacterial activity against methicillin susceptible Staphylococcus aureus RN4220 in presence of 8 ug/mL Nalpha,Nepsilon-diacetyl-L-Lys-D-Ala-D-Lactate by broth dilution method; assay type: functional
[10] = Inhibition of methicillin susceptible Staphylococcus aureus RN4220 transglycosylase assessed as inhibition of peptidoglycan formation by crude assay
Enterococcus faecium [11] = assay: Antibacterial activity against vancomycin A resistant Enterococcus faecium isolate SR-7940 by broth dilution method; assay type: functional; conditions: isolate SR7940
Staphylococcus aureus [12] = assay: Antibacterial activity against methicillin susceptible Staphylococcus aureus RN4220 in presence of 64 ug/mL Nalpha,Nepsilon-diacetyl-L-Lys-D-Ala-D-Ala by broth dilution method; assay type: functional
Staphylococcus aureus [13] = assay: Antibacterial activity against vancomycin A resistant Staphylococcus aureus isolate HIP11714 by broth dilution method; assay type: functional
Enterococcus faecium [14] = assay: Antibacterial activity against vancomycin sensitive Enterococcus faecium isolate SR-16972 by broth dilution method; assay type: functional; conditions: isolate SR16972
Enterococcus faecalis [15] = assay: Antibacterial activity against vancomycin B resistant Enterococcus faecalis isolate SR-23630 by broth dilution method; assay type: functional; conditions: isolate SR23630
Enterococcus faecalis [16] = assay: Antibacterial activity against vancomycin susceptible Enterococcus faecalis isolate SR1004 by broth dilution method; assay type: functional
Enterococcus faecium [17] = assay: Antibacterial activity against constitutively vancomycin B resistant Enterococcus faecium isolate SRM1101 by broth dilution method; assay type: functional
Enterococcus faecium [18] = assay: Antibacterial activity against vancomycin B resistant Enterococcus faecium isolate SR-23598 by broth dilution method; assay type: functional; conditions: isolate SR23598
Staphylococcus aureus [19] = assay: Inhibition of lipid intermediate formation in methicillin susceptible Staphylococcus aureus RN4220 assessed as reduction in N-acetyl-D-[1-3H]glucosamine incorporation in crude assay system; assay type: functional
Staphylococcus aureus [20] = assay: Antibacterial activity against methicillin susceptible Staphylococcus aureus RN4220 in presence of 64 ug/mL Nalpha,Nepsilon-diacetyl-L-Lys-D-Ala-D-Lactate by broth dilution method; assay type: functional

Row | Structure (SMILES) | MIC (Staphylococcus aureus [1]) [µg/mL] | MIC (Staphylococcus aureus [2]) [µg/mL] | MIC (Staphylococcus aureus [3]) [µg/mL] | MIC (Staphylococcus aureus [4]) [µg/mL] | MIC (Enterococcus faecalis [5]) [µg/mL] | IC50 (Staphylococcus aureus [6]) [µg/mL] | IC50 [7] [µg/mL] | MIC (Staphylococcus aureus [8]) [µg/mL] | MIC (Staphylococcus aureus [9]) [µg/mL] | IC50 [10] [µg/mL] | MIC (Enterococcus faecium [11]) [µg/mL] | MIC (Staphylococcus aureus [12]) [µg/mL] | MIC (Staphylococcus aureus [13]) [µg/mL] | MIC (Enterococcus faecium [14]) [µg/mL] | MIC (Enterococcus faecalis [15]) [µg/mL] | MIC (Enterococcus faecalis [16]) [µg/mL] | MIC (Enterococcus faecium [17]) [µg/mL] | MIC (Enterococcus faecium [18]) [µg/mL] | IC50 (Staphylococcus aureus [19]) [µg/mL] | MIC (Staphylococcus aureus [20]) [µg/mL]
1 | CN[C@H](CC(C)C)C(=O)N[C@H]1C(=O)N[C@@H](CC(N)=O)C(=O)N[C@H]2C(=O)N[C@H]3C(=O)N[C@H](C(=O)N[C@H](C(=O)O)c4cc(O)cc(O)c4-c4cc3ccc4O)[C@H](O)c3ccc(c(Cl)c3)Oc3cc2cc(c3O[C@H]2O[C@@H](CO)[C@H](O)[C@@H](O)[C@@H]2O[C@@H]2C[C@@](C)(NCc3cccc(NC(=O)c4ccc(C)c(OCc5ccccc5)c4[N+](=O)[O-])c3)[C@@H](O)[C@@H](C)O2)Oc2ccc(cc2Cl)[C@H]1O | 0.25 (≈ 0.137 µM) | 0.125 (≈ 0.0685 µM) | 2 (≈ 1.1 µM) | 0.125 (≈ 0.0685 µM) | 2 (≈ 1.1 µM) | 76 (≈ 41.7 µM) | 36 (≈ 19.7 µM) | 0.125 | 0.125 | 4.2 (≈ 2.3 µM) | 1 (≈ 0.548 µM) | 0.5 | 4 (≈ 2.19 µM) | 0.25 (≈ 0.137 µM) | 0.5 (≈ 0.274 µM) | 0.25 (≈ 0.137 µM) | 4 (≈ 2.19 µM) | 0.25 (≈ 0.137 µM) | 32 (≈ 17.5 µM) | 0.0625
2 | Cc1ccc(C(=O)Nc2cccc(CN[C@]3(C)C[C@@H](O[C@@H]4[C@@H](Oc5c6cc7cc5Oc5ccc(cc5Cl)[C@@H](O)[C@@H](N)C(=O)N[C@@H](CC(N)=O)C(=O)N[C@H]7C(=O)N[C@H]5C(=O)N[C@H](C(=O)N[C@H](C(=O)O)c7cc(O)cc(O)c7-c7cc5ccc7O)[C@H](O)c5ccc(c(Cl)c5)O6)O[C@@H](CO)[C@H](O)[C@H]4O)O[C@H](C)[C@@H]3O)c2)c([N+](=O)[O-])c1OCc1ccccc1 | 2 (≈ 1.18 µM) | 2 (≈ 1.18 µM) | 4 (≈ 2.36 µM) | 2 (≈ 1.18 µM) | 8 (≈ 4.72 µM) | 93 (≈ 54.8 µM) | 53 (≈ 31.2 µM) | 2 | 2 | 11 (≈ 6.48 µM) | 8 (≈ 4.72 µM) | 2 | 16 (≈ 9.43 µM) | 2 (≈ 1.18 µM) | 4 (≈ 2.36 µM) | 2 (≈ 1.18 µM) | 16 (≈ 9.43 µM) | 4 (≈ 2.36 µM) | 140 (≈ 82.5 µM) | 1
3 | C[C@H]1O[C@H](O[C@@H]2[C@@H](Oc3c4cc5cc3Oc3ccc(cc3Cl)[C@@H](O)[C@@H](N)C(=O)N[C@@H](CC(N)=O)C(=O)N[C@H]5C(=O)N[C@H]3C(=O)N[C@H](C(=O)N[C@H](C(=O)O)c5cc(O)cc(O)c5-c5cc3ccc5O)[C@H](O)c3ccc(c(Cl)c3)O4)O[C@@H](CO)[C@H](O)[C@H]2O)C[C@@](C)(N)[C@H]1O | > 64 | > 64 | > 64 | > 64 | > 64 | 3100 (≈ 2340 µM) | 920 (≈ 696 µM) | – | – | 130 (≈ 98.3 µM) | > 64 | – | > 64 | > 64 | > 64 | > 64 | > 64 | > 64 | 3900 (≈ 2950 µM) | –
4 | CN[C@H](CC(C)C)C(=O)N[C@H]1C(=O)N[C@@H](CC(N)=O)C(=O)N[C@H]2C(=O)N[C@H]3C(=O)N[C@H](C(=O)N[C@H](C(=O)O)c4cc(O)cc(O)c4-c4cc3ccc4O)[C@H](O)c3ccc(c(Cl)c3)Oc3cc2cc(c3O[C@@H]2O[C@H](CO)[C@@H](O)[C@H](O)[C@H]2O[C@H]2C[C@](C)(N)[C@H](O)[C@H](C)O2)Oc2ccc(cc2Cl)[C@H]1O [VANCOMYCIN] | – | – | 8 (≈ 5.52 µM) | – | > 64 | 2300 (≈ 1590 µM) | 85 (≈ 58.7 µM) | – | – | 4.5 (≈ 3.11 µM) | > 64 | 16 | > 64 | – | 32 (≈ 22.1 µM) | 2 (≈ 1.38 µM) | > 64 | > 64 | 180 (≈ 124 µM) | –
